This is an account of results in US11596623B2, “Methods for treating virus infection or proliferation” (HOWARD UNIVERSITY, priority 2018, dated 2023).

One test deals with HSV-1 ICP0. The test is described as follows: Real-time RT-PCR of HSV-1 ICP0 transcript in HEp-2 cells. The format is cell-based. The note with it: 12 and 24 hpi, versus DMSO. An excerpt:
The total transcript levels were quantified using actin expression as an internal control. The cDNA obtained immediately after the virus and drug transfection(s) was set as a baseline value. The normalized expression values were transformed to the log 10 value. The data plot represents mean t standard error calculated from three replicates.
Following instructions of the manufacturers, total RNA was isolated using Tri Reagent® (Ambion, Inc., Austin, Tex.). To quantitatively examine the mRNA level of HSV-1 ICP0 from the infected cells, real-time RT-PCR was undertaken using the QuantiTect SYBR Green RT-PCR kit (QIAGEN, Valencia, Calif.). […] Fluorescence (captured at 80° C.) was determined to be absent from the signal generated by primer dimers. Data were collected and recorded by the BIORAD CFX Manager software. The relative quantity of the ICP0 transcripts at the indicated time points was normalized to the relative quantity of the reference gene actin at the same time points and then the log10 copy number of the normalized RNA transcripts were calculated and presented on a bar chart. A melting temperature curve analysis was obtained by measuring (after the amplification cycles) the fluorescence during a period of warming from 60° C. to 95° C. […]

A further test relates to HSV-1. The test is described as follows: Plaque formation unit (pfu) assay. The format is cell-based. The procedure: The viral plaque assay was performed as previously described [Tang Q, Li L, Ishov A M, Revol V, Epstein A L, Maul G G. Determination of minimum herpes simplex virus type 1 components necessary to localize transcriptionally active DNA to ND10. J Virol. 2003; 77:5821-28.] with slight modifications. The HSV-1 strain 17 was diluted serially in a volume of 1 mL. Then 300 ul of the virus was added onto confluent HEp-2 cell monolayers in 12-well plates; each dilution had 3 wells. After adsorption for 2 h, the medium was removed and the cells were washed twice with serum-free DMEM and overlaid with phenol-free DMEM containing 5% FCS, 0.5% low-melting point agarose (GIBCO), and 1% penicillin-streptomycin. The cells were incubated at 37° C. for 48 hours. Neutral red was added on the agarose to stain the live cells. The plaques were counted and reported as pfu per mL. Mean pfu was determined after averaging the number of pfu from different dilutions. Student's t-tests were used to statistically analyze differences between the groups; a p-value lower than 0.005 was used as the threshold for a significant difference.
To assess the efficacy of SD-29 on the HSV-1 proliferation, a plaque assay was performed. We wanted to quantitatively assess whether SD-29 could inhibit viral replication. Because HSV-1 was able to enter cultured HEp-2 cells, we evaluated whether this entry led to productive virus replication.
In Table 1, confluent monolayers of HEp-2 cells were infected with serially diluted HSV-1 virus and were fixed and Giemsa stained at 0, 6, 12, and 24 hr post infection. The numbers of plaques were visualized. The number of plaques formed post infection decreased in the presence of SD-29 in a time-dependent manner.

With `Nn1c(S)nnc1-c1ccc(F)cc1` [SD-29], in the test with HSV-1 ICP0, the “ICP0 mRNA level” value is “essentially showed the same level of ICP0 mRNA”. Also, the Plaque formation unit with HSV-1 (0 hpi) is 0 ± 0 PFU/mL; with HSV-1 (6 hpi) it was 0 ± 0 PFU/mL; in the test with HSV-1 (12 hpi) it was 1 ± 0.08 × 10^2 PFU/mL; with HSV-1 (24 hpi) it was 1.8 ± 0.04 × 10^5 PFU/mL. Besides, in the test on HSV-1 (infected HEp-2 cells, versus DMSO), the “production of infectious virions” value is listed as “failed to produce significant infectious virions”.
